{"source": "patent US20250107543A1", "about": "“TREATMENT OF AGRICULTURAL, FOOD AND RELATED PRODUCTS FOR ELIMINATING CONTAMINANTS AND ENCHANCING SHELF-LIFE” (priority 2022, published 2025)", "key": {"yeast, mould": {"tested_on": "yeast, mould", "assay": "Yeast & Mould Count of treated whole red chilli", "conditions": "whole red chilli 12 kg's", "experimental": "(§1) This experiment illustrates the treatment of aerobic micro-organisms, yeast, mould, coliform, E. coli, Salmonella and fat soluble metabolites contaminated whole red chilli.\n(§2) The data presented in Table-2 illustrate the efficacy of the present disclosure in detoxifying contaminated whole red chillies. […].\n(§3) The red chillies were exposed with Trioxygen for 2 minutes. The products were put under pressure of trioxygen gas for a span of 9 minutes to 26 minutes. Based on the commodity characteristics, the exposure of trioxygen gas was repeated 10 times. Trioxygen gas having a capacity 500 g/h was generated by the trioxygen generator (on site) of the system with a constant oxygen flow rate and delivered to the decontamination chamber through silicon tube. The whole red chillies were then treated to heated air."}, "Salmonella": {"tested_on": "Salmonella", "assay": "Salmonella presence in treated whole red chilli", "conditions": "whole red chilli 12 kg's, Trial 1", "experimental": "as §1, §2, §3"}, "[1]": {"assay": "C17H12O6 content of treated corn", "experimental": "The data presented in Table-4 illustrates the efficiency of the system of the present disclosure in detoxifying pre-conditioned contaminated corn.\nThree sets of C17H12O6 contaminated 70 kg's of corn were separately decontaminated in the system of the present disclosure. In this case, corn samples were pre-conditioned with a pre-conditioning liquid and exposed to trioxygen gas for up to 5 minutes. The products were put under pressure of trioxygen gas for a span of 9 minutes to 26 minutes. Based on the commodity characteristics, the exposure of trioxygen gas was repeated 20 times. Trioxygen gas having capacity 500 g/h was generated by the trioxygen generator of the system (on site) with a constant oxygen flow rate and delivered to the decontamination chamber through silicon tube. All 3 sets of products were air dried and then analyzed for the presence of the contaminant and the results obtained are summarized in Table-4"}, "weevils and weevil eggs [2]": {"tested_on": "weevils and weevil eggs", "assay": "Shelf-Life Assessment of Corn", "set-up": "key to Visual observation: Powder at the bottom of bag / Weevils/Insects / Visual observation: Pin holes on grain: ✓ Not observed; x Observed", "conditions": "for Visual observation: Pin holes on grain / Visual observation: Powder at the bottom of bag / Weevils/Insects: Treated sample", "experimental": "(§4) The data presented in Table-5 illustrates the efficiency of the system of the present disclosure in pre-conditioning and deactivation of weevils and weevil eggs results in delayed occurrence of insect infestation in grains.\n(§5) Grains such as Dry corn, Groundnut, Rice & Wheat were separately pre-conditioned and decontaminated in the system of the present disclosure. Grains were exposed to trioxygen gas for up to 5 minutes. The products were put under pressure of trioxygen gas for a span of 9 minutes to 26 minutes. Trioxygen gas having capacity 500 g/h was generated by the trioxygen generator of the system (on site) with a constant oxygen flow rate and delivered to the decontamination chamber through silicon tube. All products were treated with hot air and then analyzed for the presence of the weevils and weevil eggs the results obtained are summarized in Table-5."}, "weevils and weevil eggs [3]": {"tested_on": "weevils and weevil eggs", "assay": "Shelf-Life Assessment of Wheat", "set-up": "key to Visual observation: Pin holes on grain / Visual observation: Powder at the bottom of bag / Weevils/Insects: ✓ Not observed; x Observed", "conditions": "for Visual observation: Pin holes on grain / Visual observation: Powder at the bottom of bag / Weevils/Insects: Treated sample", "experimental": "as §4, §5"}}, "data": [{"smiles": "O=[O+][O-]", "note": "[Trioxygen]", "values": [{"measurement": "Yeast & Mould Count, % Reduction", "setting": "yeast, mould; Trial 1", "result": 73, "unit": "%"}, {"measurement": "Yeast & Mould Count, Results After Treatment", "setting": "yeast, mould; Trial 1, before treatment 1.57 × 10^7 cfu/g", "result": "4.18 × 10^6 cfu/g"}, {"measurement": "Yeast & Mold Count, % Reduction", "setting": "yeast, mould; Trial 2", "result": 83, "unit": "%"}, {"measurement": "Yeast & Mold Count, Results After Treatment", "setting": "yeast, mould; Trial 2, before treatment 1.7 × 10^7 cfu/g", "result": "2.9 × 10^6 cfu/g"}, {"measurement": "Yeast & Mold Count, % Reduction", "setting": "yeast, mould; Trial 3", "result": 99, "unit": "%"}, {"measurement": "Yeast & Mold Count, Results After Treatment", "setting": "yeast, mould; Trial 3, before treatment 3.36 × 10^7 cfu/g", "result": "1.87 × 10^5 cfu/g"}, {"measurement": "Salmonella, % Reduction", "setting": "Salmonella", "result": 100, "unit": "%"}, {"measurement": "Salmonella, Results After Treatment", "setting": "Salmonella; before treatment Present/25 g", "result": "Absent/25 g"}, {"measurement": "C17H12O6, % Reduction", "setting": "[1]; Sr. No. 1, 70 kg's", "result": 100, "unit": "%"}, {"measurement": "C17H12O6, % Reduction", "setting": "[1]; Sr. No. 2, 70 kg's", "result": 85, "unit": "%"}, {"measurement": "C17H12O6, % Reduction", "setting": "[1]; Sr. No. 3, 70 kg's", "result": 100, "unit": "%"}, {"measurement": "No weevil infestation in system treated samples up to", "setting": "weevils and weevil eggs [2]", "result": "up to 6 months"}, {"measurement": "Treatment effective in delaying infestation up to", "setting": "weevils and weevil eggs [2]", "result": "up to 6 months"}, {"measurement": "Remarks on Weevils/Insects, Treated", "setting": "weevils and weevil eggs [2]; Post 1.5 Months", "result": "No weevils/insects"}, {"measurement": "Remarks on Weevils/Insects, Treated", "setting": "weevils and weevil eggs [2]; Post 2 Months", "result": "No weevils/insects"}, {"measurement": "Remarks on Weevils/Insects, Treated", "setting": "weevils and weevil eggs [2]; Post 3 Months", "result": "No weevils/insects"}, {"measurement": "Remarks on Weevils/Insects, Treated", "setting": "weevils and weevil eggs [2]; Post 5 Months", "result": "No weevils/insects"}, {"measurement": "Remarks on Weevils/Insects, Treated: cream coloured insect observed alive", "setting": "weevils and weevil eggs [2]; Post 6 Months", "result": 1, "unit": "cream coloured"}, {"measurement": "Remarks on Weevils/Insects, Treated: cream coloured insect observed alive", "setting": "weevils and weevil eggs [2]; Post 7 Months", "result": 3, "unit": "cream coloured"}, {"measurement": "Visual observation: Pin holes on grain", "setting": "weevils and weevil eggs [2]; 1.5 Months", "result": "✓"}, {"measurement": "Visual observation: Powder at the bottom of bag", "setting": "weevils and weevil eggs [2]; 1.5 Months", "result": "✓"}, {"measurement": "Weevils/Insects", "setting": "weevils and weevil eggs [2]; 1.5 Months", "result": "✓"}, {"measurement": "Visual observation: Pin holes on grain", "setting": "weevils and weevil eggs [2]; 2 Months", "result": "✓"}, {"measurement": "Visual observation: Powder at the bottom of bag", "setting": "weevils and weevil eggs [2]; 2 Months", "result": "✓"}, {"measurement": "Weevils/Insects", "setting": "weevils and weevil eggs [2]; 2 Months", "result": "✓"}, {"measurement": "Visual observation: Pin holes on grain", "setting": "weevils and weevil eggs [2]; 3 Months", "result": "✓"}, {"measurement": "Visual observation: Powder at the bottom of bag", "setting": "weevils and weevil eggs [2]; 3 Months", "result": "✓"}, {"measurement": "Weevils/Insects", "setting": "weevils and weevil eggs [2]; 3 Months", "result": "✓"}, {"measurement": "Visual observation: Pin holes on grain", "setting": "weevils and weevil eggs [2]; 5 Months", "result": "✓"}, {"measurement": "Visual observation: Powder at the bottom of bag", "setting": "weevils and weevil eggs [2]; 5 Months", "result": "✓"}, {"measurement": "Weevils/Insects", "setting": "weevils and weevil eggs [2]; 5 Months", "result": "✓"}, {"measurement": "Visual observation: Pin holes on grain", "setting": "weevils and weevil eggs [2]; 6 Months", "result": "✓"}, {"measurement": "Visual observation: Powder at the bottom of bag", "setting": "weevils and weevil eggs [2]; 6 Months", "result": "✓"}, {"measurement": "Weevils/Insects", "setting": "weevils and weevil eggs [2]; 6 Months", "result": "x"}, {"measurement": "Visual observation: Pin holes on grain", "setting": "weevils and weevil eggs [2]; 7 Months", "result": "✓"}, {"measurement": "Visual observation: Powder at the bottom of bag", "setting": "weevils and weevil eggs [2]; 7 Months", "result": "✓"}, {"measurement": "Weevils/Insects", "setting": "weevils and weevil eggs [2]; 7 Months", "result": "x"}, {"measurement": "Number of weevils in treated sample compared to those in control, times less", "setting": "weevils and weevil eggs [2]; at month 7", "result": 5, "unit": "times"}, {"measurement": "Number of weevils in treated sample compared to those in control, times less", "setting": "weevils and weevil eggs [2]; at month 8", "result": 1.5, "unit": "times"}, {"measurement": "Number of weevils in treated sample compared to those in control", "setting": "weevils and weevil eggs [2]; at month 9", "result": "No difference"}, {"measurement": "No weevil infestation in system treated samples up to", "setting": "weevils and weevil eggs [3]", "result": "up to 3 months"}, {"measurement": "Treatment effective in delaying infestation up to", "setting": "weevils and weevil eggs [3]", "result": "up to 6 months"}, {"measurement": "Remarks on Weevils/Insects, Treated", "setting": "weevils and weevil eggs [3]; Post 1.5 Months", "result": "No weevils/insects"}, {"measurement": "Remarks on Weevils/Insects, Treated", "setting": "weevils and weevil eggs [3]; Post 2 Months", "result": "No weevils/insects"}, {"measurement": "Remarks on Weevils/Insects, Treated", "setting": "weevils and weevil eggs [3]; Post 3 Months", "result": "No weevils/insects"}, {"measurement": "Remarks on Weevils/Insects, Treated: cream/buff colour insect (3 mm) observed alive", "setting": "weevils and weevil eggs [3]; Post 5 Months", "result": 2, "unit": "cream/buff colour"}, {"measurement": "Remarks on Weevils/Insects, Treated: cream/buff colour insect (3 mm) observed alive", "setting": "weevils and weevil eggs [3]; Post 6 Months", "result": 3, "unit": "cream/buff colour"}, {"measurement": "Remarks on Weevils/Insects, Treated: cream/buff colour insect (3 mm) observed alive", "setting": "weevils and weevil eggs [3]; Post 7 Months", "result": 3, "unit": "cream/buff colour"}, {"measurement": "Visual observation: Pin holes on grain", "setting": "weevils and weevil eggs [3]; 1.5 Months", "result": "✓"}, {"measurement": "Visual observation: Powder at the bottom of bag", "setting": "weevils and weevil eggs [3]; 1.5 Months", "result": "✓"}, {"measurement": "Weevils/Insects", "setting": "weevils and weevil eggs [3]; 1.5 Months", "result": "✓"}, {"measurement": "Visual observation: Pin holes on grain", "setting": "weevils and weevil eggs [3]; 2 Months", "result": "✓"}, {"measurement": "Visual observation: Powder at the bottom of bag", "setting": "weevils and weevil eggs [3]; 2 Months", "result": "✓"}, {"measurement": "Weevils/Insects", "setting": "weevils and weevil eggs [3]; 2 Months", "result": "✓"}, {"measurement": "Visual observation: Pin holes on grain", "setting": "weevils and weevil eggs [3]; 3 Months", "result": "✓"}, {"measurement": "Visual observation: Powder at the bottom of bag", "setting": "weevils and weevil eggs [3]; 3 Months", "result": "✓"}, {"measurement": "Weevils/Insects", "setting": "weevils and weevil eggs [3]; 3 Months", "result": "✓"}, {"measurement": "Visual observation: Pin holes on grain", "setting": "weevils and weevil eggs [3]; 5 Months", "result": "✓"}, {"measurement": "Visual observation: Powder at the bottom of bag", "setting": "weevils and weevil eggs [3]; 5 Months", "result": "✓"}, {"measurement": "Weevils/Insects", "setting": "weevils and weevil eggs [3]; 5 Months", "result": "x"}, {"measurement": "Visual observation: Pin holes on grain", "setting": "weevils and weevil eggs [3]; 6 Months", "result": "✓"}, {"measurement": "Visual observation: Powder at the bottom of bag", "setting": "weevils and weevil eggs [3]; 6 Months", "result": "✓"}, {"measurement": "Weevils/Insects", "setting": "weevils and weevil eggs [3]; 6 Months", "result": "x"}, {"measurement": "Visual observation: Pin holes on grain", "setting": "weevils and weevil eggs [3]; 7 Months", "result": "✓"}, {"measurement": "Visual observation: Powder at the bottom of bag", "setting": "weevils and weevil eggs [3]; 7 Months", "result": "✓"}, {"measurement": "Weevils/Insects", "setting": "weevils and weevil eggs [3]; 7 Months", "result": "x"}, {"measurement": "Number of weevils in treated sample compared to those in control, times less", "setting": "weevils and weevil eggs [3]; at month 5", "result": 4, "unit": "times"}]}]}
